Values quoted from earlier work as cited in patent publication US20230309918A1, “TREATING PATHOGENIC INFECTIONS” (priority 2020, published 2023).

Key:
[1] = in vivo
HSV-1 IE gene expression = settings: diminishes the ability of the virus to launch the lytic infectious cycle
NF-κB = settings: pro-inflammatory signaling pathway involved in Lyme-induced inflammation
Borrelia burgdorferi = settings: one animal study (Pothineni et al., Sci Rep 2020)
[2] = kidneys

In the case of COc1cc(/C=C/C(=O)CC(=O)/C=C/c2ccc(O)c(OC)c2)ccc1O [Curcumin], the oral bioavailability [1] is listed as “poor”, the “effect on HSV-1 IE gene expression” value (HSV-1 IE gene expression) is listed as “affect HSV-1 IE gene expression” and the “activation of NF-κB” value (NF-κB) is listed as “blocking the activation of NF-κB”.
In the case of CC1(C)S[C@@H]2[C@H](NC(=O)[C@H](NC(=O)N3CCNC3=O)c3ccccc3)C(=O)N2[C@H]1C(=O)O [azlocillin], the “killing of disease-causing bacteria Borrelia burgdorferi” value (Borrelia burgdorferi) is given as “completely kills off”.
For Nc1nc2c(ncn2COCCO)c(=O)[nH]1 [Acyclovir], the toxic side effects [2] is given as “toxic side effects in the kidneys”.
In the case of O=c1c(O)c(-c2ccc(O)c(O)c2)oc2cc(O)cc(O)c12 [Quercetin], the solubility in water is given as “poorly soluble”.
